From article PMC3303751, “Development of Tyrosine-Based Radiotracer ^99mTc-N4-Tyrosine for Breast Cancer Imaging” (Journal of Biomedicine and Biotechnology, 2012)

What was measured:
[1] = system: breast tumor cell line 13762 tumors; experiment: Planar scintigraphic imaging in breast tumor-bearing rats; assay type: in vivo, Fischer 344 rats; details: for Tumor %ID (percent of injected dose in the tumor) / tumor-to-muscle (T/M) ratio: i.v. 300 μCi/rat
Description: Cells from the breast tumor cell line 13762, suspended in phosphate-buffered solution (10^5 cells/0.1 mL solution per rat), were injected subcutaneously into the right calf muscle of female Fischer 344 rats (n = 9). Planar scintigraphic imaging of ^99mTc-N4-Tyrosine was performed 12–14 days after inoculation when tumors reached approximately 1 cm in diameter. The breast tumor-bearing rats (n = 3/time point) were anesthetized and injected intravenously with ^99mTc-N4-Tyrosine (0.3 mg/rat, 300 μCi/rat), and images were acquired at 30, 120, and 240 minutes after administration of tracers. Planar scintigraphic images were obtained using M-CAM (Siemens Medical Solutions, Hoffman Estates, IL, USA) equipped with a low-energy high-resolution collimator. Computer-outlined regions of interest (ROIs in counts per pixel) between tumor and muscle tissue were used to calculate tumor-to-muscle (T/M) ratios. Percent of injected dose (%ID) in the tumor was also calculated from the reference standard, which was 1/10 of the original injection activity of ^99mTc-N4-Tyrosine.

[2] = Blood clearance in normal rats; assay type: in vivo; details: normal female Fischer 344 rats, i.v. 30 μCi
Description: All animal work was carried out in the Small Animal Imaging Facility at MD Anderson under a protocol approved by the Institutional Animal Care and Use Committee. For blood clearance analysis, 3 normal female Fischer 344 rats (150 ± 25 g; Harlan Sprague-Dawley, Indianapolis, IN, USA) were intravenously injected with 30 μCi of ^99mTc-N4-Tyrosine. Blood samples (n = 3/rat) were drawn from each rat through the lateral tail vein by microliter pipette (10 μL) at several time points between 5 minutes and 24 hours after injection. The blood samples were measured for radioactivity by gamma counter, and the radioactivity was expressed as a percentage of the injected dose per gram of blood (%ID/g).

[3] = system: rat breast tumor cell line 13762; experiment: In vitro cellular uptake; assay type: cell-based; details: 13762 cells
Description: Rat breast tumor cell line 13762 (American Type Culture Collection, Rockville, MD, USA) was used for both in vitro studies and to create the animal model for in vivo evaluation. All cells were maintained in Dulbecco's modified Eagle's medium and nutrient mixture F-12 Ham (DMEM/F12; GIBCO, Grand Island, NY) at 37°C in a humidified atmosphere containing 5% CO2.
For in vitro cellular uptake analysis, cells were plated onto 6-well tissue culture plates (2 × 10^5 cells/well) 48 hours before adding the radiotracers and incubated with ^99mTc-N4-Tyrosine (0.05 mg/well, 8 μCi/well), ^99mTc-N4 (0.025 mg/well, 8 μCi/well), or ^18F-FDG (8 μCi/well) for 0–4 hours. After incubation, cells were washed with ice-cold phosphate-buffered solution twice and detached using a treatment of 0.5 mL of trypsin for 5 minutes. Cells were then collected, and the radioactivity of the cells was measured in triplicate with a gamma counter (Cobra Quantum). Radioactivity was expressed as mean ± standard deviation (SD) percent of cellular uptake (%Uptake).

[4] = system: breast tumor (13762) and turpentine oil-induced inflammation; experiment: Tumor and inflammation uptake comparison, planar scintigraphy; assay type: in vivo, Fischer 344 rats; details: tumor- and inflammation-bearing rats
Description: To investigate whether ^99mTc-N4-Tyrosine can differentiate tumor tissue from inflammatory tissue, a rat model bearing both a mammary tumor and tissue with turpentine oil-induced inflammation was created. Rat breast tumor cells (from cell line 13762; 10^5 cells/0.1 mL phosphate-buffered solution per rat) were injected into the right calf muscles of 3 female Fischer 344 rats. After the tumors reached 1 cm in diameter, turpentine oil (0.1 mL/rat) was injected into the left calf muscles of the rats to induce inflammation. The anesthetized rats were injected intravenously with ^99mTc-N4-Tyrosine 24 hours after the turpentine injection. Planar scintigraphic images were acquired at 30, 120, and 240 minutes after the ^99mTc-N4-Tyrosine injection, and ROIs of the tumor, inflamed tissue, and muscle were used to calculate the tumor-to-muscle ratios (T/Ms), inflammation-to-muscle ratios (I/Ms), and tumor-to-inflammation ratios (T/Is), respectively. The same animal model was used to evaluate ^18F-FDG. Micro-PET imaging of ^18F-FDG was performed using an R4 micro-PET scanner (Concorde Microsystems, Knoxville, TN, USA). Three breast tumor- and inflammation-bearing rats were injected intravenously with ^18F-FDG (500 μCi/rat), and dynamic PET scans with a spatial resolution of 2.2 mm were obtained at 30, 60, and 90 minutes after ^18F-FDG injection. PET images were reconstructed by using the ordered subset expectation maximization (OSEM) algorithm. T/M, I/M, and T/I ratios were calculated using the regional radioactivity concentrations (μCi/cm^3) that were estimated from the average pixels within ROIs drawn around the tumor, inflamed tissue, or muscle on transverse slices of the reconstructed image sets.

[5] = OLINDA/EXM dosimetry estimates; parameters: species or system human (70 kg standard man model)
Source text: Rat absorbed dose estimates for ^99mTc-N4-Tyrosine were computed from biodistribution data. Individual organ and whole-body time-activity curves were fitted to exponential functions using OLINDA/EXM software (version 1.1; Vanderbilt University, Nashville, TN, USA). These functions were then integrated analytically to determine the area under the curve to yield the residence time of ^99mTc-N4-Tyrosine in each organ. It was assumed that the injected activity of ^99mTc-N4-Tyrosine was uniformly distributed throughout the body immediately following injection. Mass correction factors were used to account for the different ratios of organs to total body weight and different scaling of residence times between rats and humans. Residence times were then used to calculate target organ absorbed radiation doses for a 70 kg standard man model using the OLINDA/EXM software.

[6] = Tissue distribution in normal rats; assay type: in vivo, Fischer 344 rats; details: for tissue distribution, Blood / tissue distribution, Bone and joint / tissue distribution, Brain / tissue distribution, Heart / tissue distribution, Intestine / tissue distribution, Kidney / tissue distribution, Liver / tissue distribution, Lung / tissue distribution, Muscle / tissue distribution, Pancreas / tissue distribution, Spleen / tissue distribution, Stomach / tissue distribution, Thyroid: i.v.
Description: Tissue distribution studies of ^99mTc-N4-Tyrosine were conducted using normal female Fischer 344 rats (150 ± 25 g, n = 9). The rats were divided into 3 groups, and each rat was injected intravenously with 25 ± 0.5 μCi of ^99mTc-N4-Tyrosine. Each group was examined at 1 of 3 time points (0.5, 2, or 4 hours after injection). At each time point, the rats were killed, and the selected tissues were excised, weighed, and measured for radioactivity by gamma counter. For each sample, radioactivity was expressed as mean percentage of the injected dose per gram of tissue wet weight (%ID/g). Counts from a 1/10 diluted sample of the original injection were used as a reference.

[7] = Partition coefficient (1-octanol/sterile water); assay type: physicochemical; details: room temperature
Description: To determine the lipophilicity, 20 μL of ^99mTc-N4-Tyrosine was added into an equal volume mixture of 1-octanol and sterile water in a centrifuge tube. The mixture was vortexed at room temperature for 1 minute and then centrifuged at 5,000 rpm for 5 minutes to allow phase separation. From each phase, 0.1 mL of the aliquot was taken out, and the radioactivity was measured by gamma counter (Cobra Quantum, Packard, MN, USA). The measurement was repeated 3 times, and care was taken to avoid cross-contamination between the phases. The partition coefficient value, expressed as log P, was calculated using the following equation:
(1) Log P= log(radioactivity in 1‐octanol layer/radioactivity in sterile water layer)

[8] = 15 mCi per patient, 70 kg adult man

^99mTc-O-[3-(1,4,8,11-tetraazabicyclohexadecane)-propyl]-tyrosine [^99mTc-N4-Tyrosine]
tumor detection by planar scintigraphic imaging ([1]; all time points (30, 120, 240 minutes)): clearly detected | Tumor %ID (percent of injected dose in the tumor) ([1]; 30 minutes): 1.82 %ID | tumor-to-muscle (T/M) ratio ([1]; 30 minutes): 5.12 | Tumor %ID (percent of injected dose in the tumor) ([1]; 120 minutes): 1.87 %ID | tumor-to-muscle (T/M) ratio ([1]; 120 minutes): 4.88 | Tumor %ID (percent of injected dose in the tumor) ([1]; 240 minutes): 1.71 %ID | tumor-to-muscle (T/M) ratio ([1]; 240 minutes): 5.2 | plasma half-life of the distribution phase (t1/2α) [2]: 9.31 ± 0.759 min | plasma half-life of the elimination phase (t1/2β) [2]: 90.14 ± 1.901 min | mean %Uptake compared with ^18F-FDG ([3]; 8 μCi/well): much higher than that of ^18F-FDG | cellular uptake kinetics (%Uptake) ([3]; incubation 15-240 minutes): increased dramatically up to 240 minutes | inflammation-to-muscle (I/M) ratio ([4]; 30 min): 4.26 | tumor-to-inflammation (T/I) ratio ([4]; 30 min): 1.2 | tumor-to-muscle (T/M) ratio ([4]; 30 min): 5.12 | inflammation-to-muscle (I/M) ratio ([4]; 120 min): 3.62 | tumor-to-inflammation (T/I) ratio ([4]; 120 min): 1.14 | tumor-to-muscle (T/M) ratio ([4]; 120 min): 4.11 | inflammation-to-muscle (I/M) ratio ([4]; 240 min): 2.45 | tumor-to-inflammation (T/I) ratio ([4]; 240 min): 1.32 | tumor-to-muscle (T/M) ratio ([4]; 240 min): 3.24 | tumor-to-inflammation (T/I) ratios ([4]; all time points): greater than 1 | Human dose (15 mCi), Adrenals [5, 8]: 2.58E − 01 rem | Human dose (15 mCi), Brain [5, 8]: 2.61E − 02 rem | Human dose (15 mCi), Breasts [5, 8]: 7.08E − 02 rem | Human dose (15 mCi), Effective dose [5, 8]: 1.22E − 01 rem | Human dose (15 mCi), Effective dose equivalent [5, 8]: 3.17E − 01 rem | Human dose (15 mCi), Gallbladder wall [5, 8]: 2.10E − 01 rem | Human dose (15 mCi), Heart wall [5, 8]: 4.73E − 01 rem | Human dose (15 mCi), Kidneys [5, 8]: 2.70E + 00 rem | Human dose (15 mCi), Liver [5, 8]: 3.06E − 01 rem | Human dose (15 mCi), Lower large intestine wall [5, 8]: 9.00E − 02 rem | Human dose (15 mCi), Lungs [5, 8]: 1.26E − 01 rem | Human dose (15 mCi), Muscle [5, 8]: 7.44E − 02 rem | Human dose (15 mCi), Osteogenic cells [5, 8]: 2.90E − 01 rem | Human dose (15 mCi), Ovaries [5, 8]: 9.80E − 02 rem | Human dose (15 mCi), Pancreas [5, 8]: 2.09E − 01 rem | Human dose (15 mCi), Red marrow [5, 8]: 1.06E − 01 rem | Human dose (15 mCi), Skin [5, 8]: 4.95E − 02 rem | Human dose (15 mCi), Small intestine [5, 8]: 1.50E − 01 rem | Human dose (15 mCi), Spleen [5, 8]: 3.14E − 01 rem | Human dose (15 mCi), Stomach wall [5, 8]: 1.38E − 01 rem | Human dose (15 mCi), Testes [5, 8]: 4.40E − 02 rem | Human dose (15 mCi), Thymus [5, 8]: 1.27E − 01 rem | Human dose (15 mCi), Thyroid [5, 8]: 6.92E − 02 rem | Human dose (15 mCi), Total Body [5, 8]: 1.10E − 01 rem | Human dose (15 mCi), Upper large intestine wall [5, 8]: 1.36E − 01 rem | Human dose (15 mCi), Urinary bladder wall [5, 8]: 7.71E − 02 rem | Human dose (15 mCi), Uterus [5, 8]: 9.80E − 02 rem | Total rem absorbed by each organ versus US FDA limits for radioactive research drugs ([5]; proposed injection of 15 mCi per patient): below these limits | tissue distribution, Blood ([6]; 30 min after injection): 0.88 %ID/g | tissue distribution, Bone and joint ([6]; 30 min after injection): 0.24 %ID/g | tissue distribution, Brain ([6]; 30 min after injection): 0.03 %ID/g | tissue distribution, Heart ([6]; 30 min after injection): 0.21 %ID/g | tissue distribution, Intestine ([6]; 30 min after injection): 0.34 %ID/g | tissue distribution, Kidney ([6]; 30 min after injection): 11.05 %ID/g | tissue distribution, Liver ([6]; 30 min after injection): 1.15 %ID/g | tissue distribution, Lung ([6]; 30 min after injection): 0.50 %ID/g | tissue distribution, Muscle ([6]; 30 min after injection): 0.07 %ID/g | tissue distribution, Pancreas ([6]; 30 min after injection): 0.17 %ID/g | tissue distribution, Spleen ([6]; 30 min after injection): 0.94 %ID/g | tissue distribution, Stomach ([6]; 30 min after injection): 0.20 %ID/g | tissue distribution, Thyroid ([6]; 30 min after injection): 0.34 %ID/g | tissue distribution, Blood ([6]; 120 min after injection): 0.20 %ID/g | tissue distribution, Bone and joint ([6]; 120 min after injection): 0.15 %ID/g | tissue distribution, Brain ([6]; 120 min after injection): 0.02 %ID/g | tissue distribution, Heart ([6]; 120 min after injection): 0.06 %ID/g | tissue distribution, Intestine ([6]; 120 min after injection): 0.13 %ID/g | tissue distribution, Kidney ([6]; 120 min after injection): 12.34 %ID/g | tissue distribution, Liver ([6]; 120 min after injection): 0.70 %ID/g | tissue distribution, Lung ([6]; 120 min after injection): 0.19 %ID/g | tissue distribution, Muscle ([6]; 120 min after injection): 0.03 %ID/g | tissue distribution, Pancreas ([6]; 120 min after injection): 0.07 %ID/g | tissue distribution, Spleen ([6]; 120 min after injection): 0.76 %ID/g | tissue distribution, Stomach ([6]; 120 min after injection): 0.08 %ID/g | tissue distribution, Thyroid ([6]; 120 min after injection): 0.10 %ID/g | tissue distribution, Blood ([6]; 240 min after injection): 0.17 %ID/g | tissue distribution, Bone and joint ([6]; 240 min after injection): 0.12 %ID/g | tissue distribution, Brain ([6]; 240 min after injection): 0.01 %ID/g | tissue distribution, Heart ([6]; 240 min after injection): 0.05 %ID/g | tissue distribution, Intestine ([6]; 240 min after injection): 0.11 %ID/g | tissue distribution, Kidney ([6]; 240 min after injection): 12.40 %ID/g | tissue distribution, Liver ([6]; 240 min after injection): 0.67 %ID/g | tissue distribution, Lung ([6]; 240 min after injection): 0.14 %ID/g | tissue distribution, Muscle ([6]; 240 min after injection): 0.02 %ID/g | tissue distribution, Pancreas ([6]; 240 min after injection): 0.05 %ID/g | tissue distribution, Spleen ([6]; 240 min after injection): 0.63 %ID/g | tissue distribution, Stomach ([6]; 240 min after injection): 0.06 %ID/g | tissue distribution, Thyroid ([6]; 240 min after injection): 0.09 %ID/g | stability in vivo ([6]; inferred from low thyroid and stomach uptake): high stability in vivo | log P [7]: −2.83 ± 0.082
